Results from patent US20250002486A1, “CYCLIC SULFONAMIDE RIBONUCLEOTIDE REDUCTASE (RNR) INHIBITORS AND USES THEREOF” (Boundless Bio, Inc., priority 2021, published 2025).

Key:
RNR (RNR1:RNR2 1:1) = RNR (RNR1:RNR2 1:1) (Homo sapiens (Human), UniProt P23921); experiment: RNR enzyme activity, rapid-fire mass spectrometry (RF/MS) assay; type: biochemical; settings: RNR 50 nM, 1:1 RNR1:RNR2; CDP 5 μM, ATP 1 mM; 37° C., 45 min; compounds screened up to 50 μM
Procedure: A rapid-fire mass spectrometry (RF/MS) assay was used to assess RNR enzyme activity using a 384 well plate and a robotic platform.
The plate layout included two validated reference compounds (Triapine (3-AP) and Hydroxyurea (HU)): • A dose response in duplicate; top concentration: 5 μM (3-AP) and 250 μM (HU), semi-log • dilutions. • Spike wells in triplicate randomly spotted at four concentrations: • 250 μM, 100 μM, 30 μM and 2 μM for HU • 5 μM, 2 μM, 0.6 μM and 0.04 μM for 3-AP
First, the multidrop pipes were saturated for 30 minutes with enzymatic solution. Then 30 μL of Stop solution was distributed in column 24. Next, 15 μL of enzyme was distributed in column 1 to 24. Next, a pre-incubation step of 15 minutes at room temperature occurred, followed by distribution of 15 μL of substrate solution (column 1 to 24). Next, the plate was incubated for 45 minutes at 37° C. 30 μL of Stop solution was distributed to columns 1 to 23.
The final parameters for the enzyme reactions were: • Incubation: 37° C., 45 min • [CDP]: 5 μM; [ATP]: 1 mM; [NADPH]: No • [RNR]final: 50 nM with 1:1 (RNR1:RNR2) ratio • Final volume: 30 μL • Stop solution: 6% HCOOH containing 2 μM of 15

[1] = tested on: pCHK1 (S345) in Colo320 DM cells; experiment: Alphalisa assay: pCHK1 (S345) detection in Colo320 DM cells; type: cell-based, human; settings: compound incubation overnight (approximately 16 hours), pCHK1 (S345) AlphaLisa Sure Fire kit
Procedure: Colo320 DM cells (ATCC #CCL-220, derived from human colorectal adenocarcinoma, Dukes' type C) were seeded on a 96-well, cell culture treated assay plate at a density of 50,000 cells/well in 200 μL of RPMI-1640 media supplemented with 10% Fetal Bovine Serum and incubated at 37 degrees Celsius overnight. The following day, test compound dilutions were added directly to the plated cells by a Tecan digital dispenser to a final DMSO concentration of <0.5%. and incubated at 37 degrees Celsius overnight (approximately 16 hours). The following day all cull culture media was removed from the cells. 75 μL of 1× AlphaLisa lysis buffer was added to each well and plates were agitated on a shaker for 30 minutes at room temperature. The lysis of cells and detection of pCHK1 (S345) were performed with regents contained within the AlphaLisa Sure Fire assay kit (Perkin Elmer #ALSU-PCHK1-A) according to the manufacturer's instructions. 10 μL of each lysate was then transferred to a white, 384-well assay plate (Perkin Elmer #6008280). 5 μL of Acceptor mix was then added to each well of lysate in the white, 384-well assay plate and incubated in the dark at room temperature for 60 minutes. 5 μL of Donor mix was then added to each well of the white, 384-well assay plate in subdued light and incubated at room temperature for 60 minutes. Plates were read on an Alpha Technology-compatible plate reader using standard AlphaLisa settings.

Sequence of RNR (RNR1:RNR2 1:1) (P23921 whole entry): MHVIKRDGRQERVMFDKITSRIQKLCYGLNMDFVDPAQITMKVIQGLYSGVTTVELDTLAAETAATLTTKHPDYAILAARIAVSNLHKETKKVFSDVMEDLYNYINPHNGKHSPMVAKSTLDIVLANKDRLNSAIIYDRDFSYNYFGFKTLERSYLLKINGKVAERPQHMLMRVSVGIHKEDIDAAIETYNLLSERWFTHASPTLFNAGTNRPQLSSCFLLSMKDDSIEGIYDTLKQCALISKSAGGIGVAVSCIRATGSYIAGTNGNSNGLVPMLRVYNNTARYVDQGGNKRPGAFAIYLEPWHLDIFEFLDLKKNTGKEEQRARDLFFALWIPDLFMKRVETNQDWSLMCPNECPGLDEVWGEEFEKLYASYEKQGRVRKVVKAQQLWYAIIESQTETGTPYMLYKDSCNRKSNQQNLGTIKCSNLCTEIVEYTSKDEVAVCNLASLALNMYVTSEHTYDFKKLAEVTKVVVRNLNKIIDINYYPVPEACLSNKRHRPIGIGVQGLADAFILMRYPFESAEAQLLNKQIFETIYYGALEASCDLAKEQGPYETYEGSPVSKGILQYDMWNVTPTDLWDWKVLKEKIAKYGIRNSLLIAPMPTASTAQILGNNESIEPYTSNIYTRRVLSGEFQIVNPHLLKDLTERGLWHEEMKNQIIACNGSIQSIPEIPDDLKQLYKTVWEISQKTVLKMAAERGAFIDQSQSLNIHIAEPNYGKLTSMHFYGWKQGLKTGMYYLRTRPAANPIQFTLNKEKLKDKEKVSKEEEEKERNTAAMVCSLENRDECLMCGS

IC50 (RNR (RNR1:RNR2 1:1)) [µM] | IC50 [1] [µM] | IC50 ([1]; Homo sapiens, COLO 320DM) [µM] | SMILES
10 to 100 | > 50 | – | COc1cc(Cl)cc2c1S(=O)(=O)N([C@@H](c1n[nH]c(=O)o1)[C@@H](C)c1c(F)ccc(C)c1C)C2=O (stereo in doubt) [Example 3, 5-((1R,2S)-1-(5-chloro-7-methoxy-1,1-dioxido-3-oxobenzo[d]isothiazol-2(3H)-yl)-2-(6-fluoro-2,3-dimethylphenyl)propyl)-1,3,4-oxadiazol-2(3H)-one]
10 to 100 | – | > 50 | COc1cc(Cl)cc2c1S(=O)(=O)N([C@@H](c1n[nH]c(=O)o1)[C@H](C)c1c(F)ccc(C)c1C)C2=O (stereo in doubt) [Example 4, 5-((1R,2R)-1-(5-chloro-7-methoxy-1,1-dioxido-3-oxobenzo[d]isothiazol-2(3H)-yl)-2-(6-fluoro-2,3-dimethylphenyl)propyl)-1,3,4-oxadiazol-2(3H)-one]
10 to 100 | – | > 50 | COc1cc(Cl)cc2c1S(=O)(=O)N([C@@H](c1n[nH]c(=O)o1)[C@@H](C)c1c(F)ccc(C)c1C)C2=O (stereo in doubt) [Example 15, 5-((1R,2S)-1-(5-chloro-7-methoxy-1,1-dioxido-3-oxobenzo[d]isothiazol-2(3H)-yl)-2-(6-fluoro-2,3-dimethylphenyl)propyl)-1,3,4-oxadiazol-2(3H)-one]
10 to 100 | – | > 50 | Cc1ccc(F)c([C@@H](C)[C@@H](c2n[nH]c(=O)o2)N2C(=O)c3cc(Cl)ccc3S2(=O)=O)c1C [Example 1, 5-((1S,2R)-1-(5-chloro-1,1-dioxido-3-oxobenzo[d]isothiazol-2(3H)-yl)-2-(6-fluoro-2,3-dimethylphenyl)propyl)-1,3,4-oxadiazol-2(3H)-one]
1 to 10 | – | > 50 | Cc1ccc(F)c([C@H](C)[C@@H](c2n[nH]c(=O)o2)N2C(=O)c3cc(Cl)ccc3S2(=O)=O)c1C [Example 2, 5-((1S,2S)-1-(5-chloro-1,1-dioxido-3-oxobenzo[d]isothiazol-2(3H)-yl)-2-(6-fluoro-2,3-dimethylphenyl)propyl)-1,3,4-oxadiazol-2(3H)-one]
10 to 100 | – | > 50 | COc1cc(Cl)cc2c1S(=O)(=O)N([C@H](c1n[nH]c(=O)o1)[C@@H](C)c1c(F)ccc(C)c1C)C2 [Example 5, 5-((1S,2S)-1-(5-chloro-7-methoxy-1,1-dioxidobenzo [d]isothiazol-2(3H)-yl)-2-(6-fluoro-2,3-dimethylphenyl)propyl)-1,3,4-oxadiazol-2(3H)-one]
1 to 10 | – | > 50 | COc1cc(Cl)cc2c1S(=O)(=O)N([C@H](c1n[nH]c(=O)o1)[C@H](C)c1c(F)ccc(C)c1C)C2 [Example 6, 5-((1S,2R)-1-(5-chloro-7-methoxy-1,1-dioxidobenzo [d]isothiazol-2(3H)-yl)-2-(6-fluoro-2,3-dimethylphenyl)propyl)-1,3,4-oxadiazol-2(3H)-one]
≤ 0.1 | – | ≤ 5 | Cc1ccc(F)c([C@@H](C)[C@@H](c2n[nH]c(=O)o2)N2CCc3cc(Cl)ccc3S2(=O)=O)c1C [Example 7, 5-((1S,2R)-1-(6-chloro-1,1-dioxido-3,4-dihydro-2H-benzo[e][1,2]thiazin-2-yl)-2-(6-fluoro-2,3-dimethylphenyl)propyl)-1,3,4-oxadiazol-2(3H)-one]
10 to 100 | – | > 50 | Cc1ccc(F)c([C@H](C)[C@H](c2n[nH]c(=O)o2)N2CCc3cc(Cl)ccc3S2(=O)=O)c1C [Example 8, 5-((1R,2S)-1-(6-chloro-1,1-dioxido-3,4-dihydro-2H-benzo[e][1,2]thiazin-2-yl)-2-(6-fluoro-2,3-dimethylphenyl)propyl)-1,3,4-oxadiazol-2(3H)-one]
≤ 0.1 | – | ≤ 5 | Cc1ccc(F)c([C@@H](C)[C@@H](c2n[nH]c(=O)o2)N2CCCc3cc(Cl)ccc3S2(=O)=O)c1C [Example 9, 5-((1S,2R)-1-(7-chloro-1,1-dioxido-4,5-dihydrobenzo [f][1,2]thiazepin-2(3H)-yl)-2-(6-fluoro-2,3-dimethylphenyl)propyl)-1,3,4-oxadiazol-2(3H)-one]
10 to 100 | – | > 50 | Cc1ccc(F)c([C@H](C)[C@@H](c2n[nH]c(=O)o2)N2CCCc3cc(Cl)ccc3S2(=O)=O)c1C [Example 10, 5-((1S,2S)-1-(7-chloro-1,1-dioxido-4,5-dihydrobenzo [f][1,2]thiazepin-2(3H)-yl)-2-(6-fluoro-2,3-dimethylphenyl)propyl)-1,3,4-oxadiazol-2(3H)-one]
0.1 to 1 | – | > 50 | Cc1ccc(F)c([C@@H](C)[C@@H](c2n[nH]c(=O)o2)N2CCc3ccc(Cl)cc3S2(=O)=O)c1C [Example 11, 5-((1S,2R)-1-(7-chloro-1,1-dioxido-3,4-dihydro-2H-benzo[e][1,2]thiazin-2-yl)-2-(6-fluoro-2,3-dimethylphenyl)propyl)-1,3,4-oxadiazol-2(3H)-one]
10 to 100 | – | > 50 | Cc1ccc(F)c([C@H](C)[C@@H](c2n[nH]c(=O)o2)N2CCc3ccc(Cl)cc3S2(=O)=O)c1C [Example 12, 5-((1S,2s)-1-(7-chloro-1,1-dioxido-3,4-dihydro-2H-benzo[e][1,2]thiazin-2-yl)-2-(6-fluoro-2,3-dimethylphenyl)propyl)-1,3,4-oxadiazol-2(3H)-one]
≤ 0.1 | – | 5 to 10 | Cc1ccc(F)c([C@@H](C)[C@@H](c2nn[nH]n2)N2CCc3cc(Cl)ccc3S2(=O)=O)c1C [Example 13, 6-chloro-2-((1S,2R)-2-(6-fluoro-2,3-dimethylphenyl)-1-(2H-tetrazol-5-yl)propyl)-3,4-dihydro-2H-benzo[e][1,2] thiazine 1,1-dioxide]
1 to 10 | – | > 50 | Cc1ccc(F)c([C@@H](C)[C@@H](c2n[nH]c(=O)o2)N2Cc3cc(Cl)ccc3S2(=O)=O)c1C [Example 14, 5-((1S,2R)-1-(5-chloro-1,1-dioxidobenzo [d]isothiazol-2(3H)-yl)-2-(6-fluoro-2,3-dimethylphenyl)propyl)-1,3,4-oxadiazol-2(3H)-one]
0.1 to 1 | – | 5 to 10 | Cc1ccc(F)c(C(C)[C@@H](c2n[nH]c(=O)o2)N2CC(=O)c3cc(Cl)ccc3S2(=O)=O)c1C (stereo partly drawn) [Example 16, 5-((1S)-1-(6-chloro-1,1-dioxido-4-oxo-3,4-dihydro-2H-benzo[e] [1,2]thiazin-2-yl)-2-(6-fluoro-2,3-dimethylphenyl)propyl)-1,3,4-oxadiazol-2(3H)-one]
10 to 100 | – | > 50 | Cc1ccc(F)c(C(C)[C@@H](c2n[nH]c(=O)o2)N2C(=O)Cc3cc(Cl)ccc3S2(=O)=O)c1C (stereo partly drawn) [Example 17, 5-((1S)-1-(6-chloro-1,1-dioxido-3-oxo-3,4-dihydro-2H-benzo[e] [1,2]thiazin-2-yl)-2-(6-fluoro-2,3-dimethylphenyl)propyl)-1,3,4-oxadiazol-2(3H)-one]
0.1 to 1 | – | 10 to 50 | Cc1ccc(F)c([C@@H](C)[C@@H](c2n[nH]c(=O)o2)N2CCc3ccccc3S2(=O)=O)c1C [Example 18, 5-((1S,2R)-1-(1,1-dioxido-3,4-dihydro-2H-benzo[e] [1,2]thiazin-2-yl)-2-(6-fluoro-2,3-dimethylphenyl)propyl)-1,3,4-oxadiazol-2(3H)-one]
0.1 to 1 | – | 10 to 50 | Cc1ccc(F)c([C@@H](C)[C@@H](c2n[nH]c(=O)o2)N2CC(O)c3cc(Cl)ccc3S2(=O)=O)c1C (stereo partly drawn) [Example 19, 5-((1S,2R)-1-(6-chloro-4-hydroxy-1,1-dioxido-3,4-dihydro-2H-benzo[e][1,2]thiazin-2-yl)-2-(6-fluoro-2,3-dimethylphenyl)propyl)-1,3,4-oxadiazol-2(3H)-one]
≤ 0.1 | – | ≤ 5 | Cc1ccc(F)c(C(C)[C@@H](c2n[nH]c(=O)o2)N2CC(C)c3cc(Cl)ccc3S2(=O)=O)c1C (stereo partly drawn) [Example 20, 5-((1S)-1-(6-chloro-4-methyl-1,1-dioxido-3,4-dihydro-2H-benzo[e][1,2]thiazin-2-yl)-2-(6-fluoro-2,3-dimethylphenyl)propyl)-1,3,4-oxadiazol-2(3H)-one]
